From patent US9302999B2, “Substituted triazoles as herbicides” (E. I. DU PONT DE NEMOURS AND COMPANY, priority 2012, dated 2016)
Where two headings read alike, the source gives them in different places.

Columns and labels:
Format in all cases: in vivo
[1] = system: velvetleaf (Abutilon theophrasti); experiment: Test A pre-/postemergence: velvetleaf; details: for pest or weed control at 125 g/ha / pest or weed control at 500 g/ha: Abutilon theophrasti, 240 h
In short: (§1)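 Each species received preemergence soil-directed spraying and, at the same time, postemergence treatment of seedlings 2–10 cm tall. Formulation: non-phytotoxic solvent mixture including surfactant. Response assessed visually about ten days on, relative to untreated controls, 0–100 scale.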

[2] = system: pigweed (Amaranthus retroflexus); experiment: Test A pre-/postemergence: pigweed; details: for pest or weed control at 125 g/ha / pest or weed control at 500 g/ha: Amaranthus retroflexus, 240 h
In short: as §1

[3] = system: foxtail, giant (giant foxtail, Setaria faberii); experiment: Test A pre-/postemergence: foxtail, giant; details: for pest or weed control at 125 g/ha / pest or weed control at 500 g/ha: Setaria faberi, 240 h
In short: as §1

[4] = system: barnyardgrass (Echinochloa crus-galli); experiment: Test A pre-/postemergence: barnyardgrass; details: for pest or weed control at 125 g/ha / pest or weed control at 500 g/ha: Echinochloa crus-galli, 240 h
In short: as §1

[5] = system: winter wheat (Triticum aestivum); experiment: Test C pre-/postemergence: winter wheat; details: Preemergence
Description: (§2) Seeds of plant species selected from blackgrass (Alopecurus myosuroides), bromegrass, downy (downy bromegrass, Bromus tectorum), foxtail, green (green foxtail, Setaria viridis), ryegrass, Italian (Italian ryegrass, Lolium multiflorum), winter wheat (Triticum aestivum), wild oat (Avena fatua), galium (catchweed bedstraw, Galium aparine), bermudagrass (Cynodon dactylon), surinam grass (Brachiaria decumbens), cocklebur (common cocklebur, Xanthium strumarium), corn (Zea mays), large crabgrass (Digitaria sanguinalis), woolly cupgrass (Eriochloa villosa), foxtail, giant (giant foxtail, Setaria faberii), goosegrass (Eleusine indica), johnsongrass (Sorghum halepense), kochia (Kochia scoparia), lambsquarters (Chenopodium album), morningglory (Ipomoea coccinea), nightshade (eastern black nightshade, Solanum ptycanthum), nutsedge, yellow (yellow nutsedge, Cyperus esculentus), pigweed (Amaranthus retroflexus), ragweed (common ragweed, Ambrosia elation), soybean (Glycine max), common (oilseed) sunflower (Helianthus annuus), Russian thistle (Salsola kali) and velvetleaf (Abutilon theophrasti) were planted into a blend of loam soil and sand and treated preemergence with test chemicals formulated in a non-phytotoxic solvent mixture which included a surfactant.
(§3) At the same time, plants selected from these crop and weed species and also barley (winter barley, Hordeum vulgare), canarygrass (Phalaris minor), chickweed (common chickweed, Stellaria media) windgrass (Apera spica-venti) and deadnettle (henbit deadnettle, Lamium amplexicaule) were planted in pots containing Redi-Earth® planting medium (Scotts Company, 14111 Scottslawn Road, Marysville, Ohio 43041) comprising spaghnum peat moss, vermiculite, wetting agent and starter nutrients and treated with postemergence applications of test chemicals formulated in the same manner. Plants ranged in height from 2 to 18 cm (1- to 4-leaf stage) for postemergence treatments.
(§4) Treated plants and controls were maintained in a greenhouse for 13 to 15 days, after which time all species were compared to controls and visually evaluated. Plant response ratings, summarized in Table C, are based on a scale of 0 to 100 where 0 is no effect and 100 is complete control. A dash (-) response means no test result.

[6] = system: lambsquarters (Chenopodium album); experiment: Test C pre-/postemergence: lambsquarters; details: Preemergence
Description: as §2, §3, §4

corn (Zea mays) = experiment: Test C pre-/postemergence: corn; details: Preemergence
Description: as §2, §3, §4

[7] = system: morningglory (Ipomoea coccinea); experiment: Test C pre-/postemergence: morningglory; details: Preemergence
Description: as §2, §3, §4

[8] = system: blackgrass (Alopecurus myosuroides); experiment: Test C pre-/postemergence: blackgrass; details: Preemergence
Description: as §2, §3, §4

[9] = system: nutsedge, yellow (yellow nutsedge, Cyperus esculentus); experiment: Test C pre-/postemergence: nutsedge, yellow; details: Preemergence
Description: as §2, §3, §4

[10] = post-emergence, Postemergence, 125 g ai/ha, 0 to 100 scale, 0 is no effect, 100 is complete control, read-out: Velvetleaf plant response rating
[11] = post-emergence, Postemergence, 500 g ai/ha, visual rating on 0 to 100 scale (0 no effect, 100 complete control), approximately ten days, read-out: Velvetleaf plant response rating
[12] = post-emergence, Postemergence, 125 g ai/ha, 0 to 100 scale, 0 is no effect, 100 is complete control, read-out: Pigweed plant response rating
[13] = post-emergence, Postemergence, 500 g ai/ha, visual rating on 0 to 100 scale (0 no effect, 100 complete control), approximately ten days, read-out: Pigweed plant response rating
[14] = post-emergence, Postemergence, 125 g ai/ha, 0 to 100 scale, 0 is no effect, 100 is complete control, read-out: Foxtail, Giant plant response rating
[15] = post-emergence, Postemergence, 500 g ai/ha, visual rating on 0 to 100 scale (0 no effect, 100 complete control), approximately ten days, read-out: Foxtail, Giant plant response rating
[16] = post-emergence, Postemergence, 125 g ai/ha, 0 to 100 scale, 0 is no effect, 100 is complete control, read-out: Barnyardgrass plant response rating
[17] = post-emergence, Postemergence, 500 g ai/ha, visual rating on 0 to 100 scale (0 no effect, 100 complete control), approximately ten days, read-out: Barnyardgrass plant response rating
[18] = 16 g ai/ha, scale 0 (no effect) to 100 (complete control)
[19] = 31 g ai/ha, scale 0 (no effect) to 100 (complete control)
[20] = 62 g ai/ha, scale of 0 to 100, 0 is no effect, 100 is complete control
[21] = 125 g ai/ha, scale 0 to 100, 0 no effect, 100 complete control
[22] = Postemergence, 125 g ai/ha, 0 to 100 scale, 0 is no effect, 100 is complete control
[23] = Postemergence, 500 g ai/ha, 0 to 100 scale, 0 is no effect, 100 is complete control
[24] = Preemergence, 125 g ai/ha, 0 to 100 scale where 0 is no effect and 100 is complete control
[25] = Preemergence, 500 g ai/ha, 0 to 100 scale (0 no effect, 100 complete control)

## COc1nn(-c2ccc(C(F)(F)F)cc2)nc1Cn1ccc(C(F)(F)F)n1 [Compound 17, 4-methoxy-2-[4-(trifluoromethyl)phenyl]-5-[[3-(trifluoromethyl)-1H-pyrazol-1-yl]methyl]-2H-1,2,3-triazole]
[1]; [10]
  pest or weed control at 125 g/ha: 90%
[1]; [11]
  pest or weed control at 500 g/ha: 100%
[1]; pre-emergence, Preemergence, 125 g ai/ha, 0 to 100 scale (0 no effect, 100 complete control), read-out: Plant response rating, Velvetleaf
  pest or weed control at 125 g/ha: 30%
[1]; pre-emergence, Preemergence, 500 g ai/ha, 0 to 100 scale, 0 is no effect, 100 is complete control, read-out: Plant response rating, Velvetleaf
  pest or weed control at 500 g/ha: 40%
[2]; [12]
  pest or weed control at 125 g/ha: 90%
[2]; [13]
  pest or weed control at 500 g/ha: 100%
[2]; pre-emergence, Preemergence, 125 g ai/ha, 0 to 100 scale (0 no effect, 100 complete control), read-out: Plant response rating, Pigweed
  pest or weed control at 125 g/ha: 90%
[2]; pre-emergence, Preemergence, 500 g ai/ha, 0 to 100 scale, 0 is no effect, 100 is complete control, read-out: Plant response rating, Pigweed
  pest or weed control at 500 g/ha: 100%
[3]; [14]
  pest or weed control at 125 g/ha: 60%
[3]; [15]
  pest or weed control at 500 g/ha: 80%
[3]; pre-emergence, Preemergence, 125 g ai/ha, 0 to 100 scale (0 no effect, 100 complete control), read-out: Plant response rating, Foxtail, Giant
  pest or weed control at 125 g/ha: 90%
[3]; pre-emergence, Preemergence, 500 g ai/ha, 0 to 100 scale, 0 is no effect, 100 is complete control, read-out: Plant response rating, Foxtail, Giant
  pest or weed control at 500 g/ha: 100%
[4]; [16]
  pest or weed control at 125 g/ha: 30%
[4]; [17]
  pest or weed control at 500 g/ha: 90%
[4]; pre-emergence, Preemergence, 125 g ai/ha, 0 to 100 scale (0 no effect, 100 complete control), read-out: Plant response rating, Barnyardgrass
  pest or weed control at 125 g/ha: 30%
[4]; pre-emergence, Preemergence, 500 g ai/ha, 0 to 100 scale, 0 is no effect, 100 is complete control, read-out: Plant response rating, Barnyardgrass
  pest or weed control at 500 g/ha: 90%

## CCc1nn(-c2ccc(C(F)(F)F)cc2)nc1Oc1cccc(OC(F)(F)F)c1 [Compound 125, 4-ethyl-5-[3-(trifluoromethoxy)phenoxy]-2-[4-(trifluoromethyl)phenyl]-2H-1,2,3-triazole]
[1]; [10]
  pest or weed control at 125 g/ha: 30%
[1]; [11]
  pest or weed control at 500 g/ha: 70%
[1]; pre-emergence, Preemergence, 125 g ai/ha, 0 to 100 scale where 0 is no effect and 100 is complete control, read-out: Plant response rating, Velvetleaf
  pest or weed control at 125 g/ha: 0%
[1]; pre-emergence, Preemergence, 500 g ai/ha, 0 to 100 scale (0 no effect, 100 complete control), read-out: Plant response rating, Velvetleaf
  pest or weed control at 500 g/ha: 50%
[2]; [12]
  pest or weed control at 125 g/ha: 90%
[2]; [13]
  pest or weed control at 500 g/ha: 100%
[2]; pre-emergence, Preemergence, 125 g ai/ha, 0 to 100 scale where 0 is no effect and 100 is complete control, read-out: Plant response rating, Pigweed
  pest or weed control at 125 g/ha: 70%
[2]; pre-emergence, Preemergence, 500 g ai/ha, 0 to 100 scale (0 no effect, 100 complete control), read-out: Plant response rating, Pigweed
  pest or weed control at 500 g/ha: 90%
[3]; [14]
  pest or weed control at 125 g/ha: 50%
[3]; [15]
  pest or weed control at 500 g/ha: 60%
[3]; pre-emergence, Preemergence, 125 g ai/ha, 0 to 100 scale where 0 is no effect and 100 is complete control, read-out: Plant response rating, Foxtail, Giant
  pest or weed control at 125 g/ha: 80%
[3]; pre-emergence, Preemergence, 500 g ai/ha, 0 to 100 scale (0 no effect, 100 complete control), read-out: Plant response rating, Foxtail, Giant
  pest or weed control at 500 g/ha: 90%
[4]; [16]
  pest or weed control at 125 g/ha: 0%
[4]; [17]
  pest or weed control at 500 g/ha: 30%
[4]; pre-emergence, Preemergence, 125 g ai/ha, 0 to 100 scale where 0 is no effect and 100 is complete control, read-out: Plant response rating, Barnyardgrass
  pest or weed control at 125 g/ha: 30%
[4]; pre-emergence, Preemergence, 500 g ai/ha, 0 to 100 scale (0 no effect, 100 complete control), read-out: Plant response rating, Barnyardgrass
  pest or weed control at 500 g/ha: 50%

## CCOc1nn(-c2ccc(Br)cc2)nc1Cc1ccnc(C(F)(F)F)c1 [Compound 189]
[5]; [18]
  Plant response rating, Wheat: 0
[5]; [19]
  Plant response rating, Wheat: 5
[5]; [20]
  Plant response rating, Wheat: 15
[5]; [21]
  Plant response rating, Wheat: 30
[1]; [22]
  Plant response rating, Velvetleaf: 70
[1]; [23]
  Velvetleaf plant response rating: 90
[1]; [24]
  Plant response rating, Velvetleaf: 20
[1]; [25]
  Plant response rating, Velvetleaf: 60
[6]; [18]
  Plant response rating, Lambsquarters: 45
[6]; [19]
  Plant response rating, Lambsquarters: 85
[6]; [20]
  Plant response rating, Lambsquarters: 90
[6]; [21]
  Plant response rating, Lambsquarters: 90
[2]; [22]
  Plant response rating, Pigweed: 100
[2]; [23]
  Pigweed plant response rating: 100
[2]; [24]
  Plant response rating, Pigweed: 100
[2]; [25]
  Plant response rating, Pigweed: 100
Corn (Zea mays); [18]
  Plant response rating, Corn: 5
Corn (Zea mays); [19]
  Plant response rating, Corn: 5
Corn (Zea mays); [20]
  Plant response rating, Corn: 15
Corn (Zea mays); [21]
  Plant response rating, Corn: 20
[3]; [22]
  Plant response rating, Foxtail, Giant: 90
[3]; [23]
  Foxtail, Giant plant response rating: 90
[3]; [24]
  Plant response rating, Foxtail, Giant: 100
[3]; [25]
  Plant response rating, Foxtail, Giant: 100
[4]; [22]
  Plant response rating, Barnyardgrass: 60
[4]; [23]
  Barnyardgrass plant response rating: 80
[4]; [24]
  Plant response rating, Barnyardgrass: 80
[4]; [25]
  Plant response rating, Barnyardgrass: 90
[7]; [19]
  Plant response rating, Morningglory: 10
[7]; [20]
  Plant response rating, Morningglory: 40
[7]; [21]
  Plant response rating, Morningglory: 60
[8]; [18]
  Plant response rating, Blackgrass: 75
[8]; [19]
  Plant response rating, Blackgrass: 90
[8]; [20]
  Plant response rating, Blackgrass: 100
[8]; [21]
  Plant response rating, Blackgrass: 100
[9]; [18]
  Plant response rating, Nutsedge, Yellow: 0
[9]; [19]
  Plant response rating, Nutsedge, Yellow: 0
[9]; [20]
  Plant response rating, Nutsedge, Yellow: 0
[9]; [21]
  Plant response rating, Nutsedge, Yellow: 0
